# Source: ChEMBL document CHEMBL3826915, “Design and comparative anticonvulsant activity assessment of CNS-active alkyl-carbamoyl imidazole derivatives” (Bioorg Med Chem, 2016)
# Activity calls are given as the source filed them. The rule behind the calls is not given here.
# Tests used:
# Mus musculus [1] = test: Anticonvulsant activity in ip dosed albino CF1 mouse assessed as protection against maximal electroshock-induced seizures by measuring time to peak effect; assay type: functional
# Mus musculus [2] = test: Anticonvulsant activity in ip dosed albino CF1 mouse assessed as protection against subcutaneous metrazol-induced seizures by measuring time to peak effect; assay type: functional
# [3] = Neurotoxicity in ip dosed albino CF1 mouse assessed as motor impairment by rotorod test; assay type: toxicity, organism-based; details: in vivo
# Mus musculus [4] = test: Neurotoxicity in albino CF1 mouse assessed as behavioral impairment at 30 mg/kg, ip after 0.5 hrs by rotorod test; assay type: toxicity, organism-based; details: in vivo
# Rattus norvegicus [5] = test: Neurotoxicity in albino Sprague-Dawley rat assessed as behavioral impairment at 30 mg/kg, po after 0.5 hrs by rotorod test; assay type: toxicity, organism-based; details: in vivo
# Mus musculus [6] = test: Anticonvulsant activity in ip dosed albino CF1 mouse assessed as protection against 6 Hz current-induced seizure by measuring time to peak effect; assay type: functional
# Rattus norvegicus [7] = test: Neurotoxicity in albino Sprague-Dawley rat assessed as behavioral impairment at 30 mg/kg, ip after 1 hr by rotorod test; assay type: toxicity, organism-based; details: in vivo
# Mus musculus [8] = test: Anticonvulsant activity in ip dosed albino CF1 mouse assessed as protection against subcutaneous metrazol-induced seizures; assay type: functional
# Rattus norvegicus [9] = test: Neurotoxicity in albino Sprague-Dawley rat assessed as behavioral impairment at 30 mg/kg, ip after 0.5 hrs by rotorod test; assay type: toxicity, organism-based; details: in vivo
# Mus musculus [10] = test: Anticonvulsant activity in albino CF1 mouse assessed as protection against maximal electroshock-induced seizures at 100 mg/kg, ip after 2 hrs; assay type: functional, organism-based
# Mus musculus [11] = test: Anticonvulsant activity in albino CF1 mouse assessed as protection against 44 mA current-induced seizure at 100 mg/kg, ip after 0.25 hrs by 6 Hz psychomotor test; assay type: functional, organism-based
# Mus musculus [12] = test: Anticonvulsant activity in albino CF1 mouse assessed as protection against 44 mA current-induced seizure at 100 mg/kg, ip after 0.5 hrs by 6 Hz psychomotor test; assay type: functional, organism-based
# Rattus norvegicus [13] = test: Neurotoxicity in albino Sprague-Dawley rat assessed as behavioral impairment at 30 mg/kg, po after 2 hrs by rotorod test; assay type: toxicity, organism-based; details: in vivo
# Mus musculus [14] = test: Anticonvulsant activity in albino CF1 mouse assessed as protection against maximal electroshock-induced seizures at 30 mg/kg, ip after 2 hrs; assay type: functional, organism-based
# Mus musculus [15] = test: Anticonvulsant activity in albino CF1 mouse assessed as protection against maximal electroshock-induced seizures at 100 mg/kg, ip after 0.5 hrs; assay type: functional, organism-based
# [16] = Protective index, ratio of TD50 for neurotoxicity in ip dosed albino CF1 mouse to ED50 for anticonvulsant activity in ip dosed […] metrazol-induced seizure albino CF1 mouse model; assay type: toxicity, organism-based; details: in vivo, read-out: Ratio TD50/ED50
# Mus musculus [17] = test: Neurotoxicity in albino CF1 mouse assessed as behavioral impairment at 100 mg/kg, ip after 2 hrs by rotorod test; assay type: toxicity, organism-based; details: in vivo
# Rattus norvegicus [18] = test: Neurotoxicity in albino Sprague-Dawley rat assessed as behavioral impairment at 30 mg/kg, ip after 0.25 hrs by rotorod test; assay type: toxicity, organism-based; details: in vivo
# Mus musculus [19] = test: Neurotoxicity in albino CF1 mouse assessed as behavioral impairment at 30 mg/kg, ip after 2 hrs by rotorod test; assay type: toxicity, organism-based; details: in vivo
# Mus musculus [20] = test: Neurotoxicity in albino CF1 mouse assessed as behavioral impairment at 100 mg/kg, ip after 1 hr by rotorod test; assay type: toxicity, organism-based; details: in vivo
# Rattus norvegicus [21] = test: Anticonvulsant activity in albino Sprague-Dawley rat assessed as protection against maximal electroshock-induced seizures at 30 mg/kg, po after 0.25 hrs; assay type: functional, organism-based
# Mus musculus [22] = test: Neurotoxicity in albino CF1 mouse assessed as behavioral impairment at 300 mg/kg, ip after 2 hrs by rotorod test; assay type: toxicity, organism-based; details: in vivo
# Mus musculus [23] = test: Anticonvulsant activity in albino CF1 mouse assessed as protection against 32 mA current-induced seizure at 30 mg/kg, ip after 2 hrs by 6 Hz psychomotor test; assay type: functional, organism-based
# Mus musculus [24] = test: Neurotoxicity in albino CF1 mouse assessed as behavioral impairment at 100 mg/kg, ip after 0.25 hrs by rotorod test; assay type: toxicity, organism-based; details: in vivo
# Mus musculus [25] = test: Neurotoxicity in albino CF1 mouse assessed as behavioral impairment at 300 mg/kg, ip after 0.5 hrs by rotorod test; assay type: toxicity, organism-based; details: in vivo
# [26] = Protective index, ratio of TD50 for neurotoxicity in ip dosed albino CF1 mouse to ED50 for anticonvulsant activity in ip dosed maximal electroshock-induced seizure albino CF1 mouse model; assay type: toxicity, organism-based; details: in vivo, read-out: Ratio TD50/ED50
# Rattus norvegicus [27] = test: Neurotoxicity in albino Sprague-Dawley rat assessed as behavioral impairment at 30 mg/kg, ip after 2 hrs by rotorod test; assay type: toxicity, organism-based; details: in vivo
# Rattus norvegicus [28] = test: Neurotoxicity in albino Sprague-Dawley rat assessed as behavioral impairment at 30 mg/kg, po after 1 hr by rotorod test; assay type: toxicity, organism-based; details: in vivo
# Rattus norvegicus [29] = test: Anticonvulsant activity in albino Sprague-Dawley rat assessed as protection against maximal electroshock-induced seizures at 30 mg/kg, ip after 0.5 hrs; assay type: functional, organism-based
# Mus musculus [30] = test: Anticonvulsant activity in ip dosed albino CF1 mouse assessed as protection against maximal electroshock-induced seizures; assay type: functional
# Rattus norvegicus [31] = test: Neurotoxicity in albino Sprague-Dawley rat assessed as behavioral impairment at 30 mg/kg, po after 0.25 hrs by rotorod test; assay type: toxicity, organism-based; details: in vivo
# Mus musculus [32] = test: Neurotoxicity in albino CF1 mouse assessed as behavioral impairment at 100 mg/kg, ip after 0.5 hrs by rotorod test; assay type: toxicity, organism-based; details: in vivo
# Mus musculus [33] = test: Anticonvulsant activity in ip dosed albino CF1 mouse assessed as protection against 6 Hz current-induced seizures by psychomotor test; assay type: functional
# Rattus norvegicus [34] = test: Anticonvulsant activity in albino Sprague-Dawley rat assessed as protection against maximal electroshock-induced seizures at 30 mg/kg, po after 2 hrs; assay type: functional, organism-based
# Rattus norvegicus [35] = test: Anticonvulsant activity in ip dosed albino Sprague-Dawley rat assessed as protection against maximal electroshock-induced seizures; assay type: functional
# Mus musculus [36] = test: Anticonvulsant activity in albino CF1 mouse assessed as protection against 44 mA current-induced seizure at 100 mg/kg, ip after 2 hrs by 6 Hz psychomotor test; assay type: functional, organism-based
# Rattus norvegicus [37] = test: Anticonvulsant activity in ip dosed albino Sprague-Dawley rat assessed as protection against maximal electroshock-induced seizures by measuring time to peak effect; assay type: functional
# Rattus norvegicus [38] = test: Anticonvulsant activity in ip dosed albino Sprague-Dawley rat assessed as protection against subcutaneous metrazol-induced seizures by measuring time to peak effect; assay type: functional
# [39] = Neurotoxicity in ip dosed albino Sprague-Dawley rat assessed as motor impairment by rotorod test; assay type: toxicity, organism-based; details: in vivo
# [40] = Protective index, ratio of TD50 for neurotoxicity in ip dosed albino CF1 mouse to ED50 for anticonvulsant activity in ip dosed 6 Hz current-induced seizure albino CF1 mouse model; details: in vivo
# Rattus norvegicus [41] = test: Anticonvulsant activity in ip dosed albino Sprague-Dawley rat assessed as protection against subcutaneous metrazol-induced seizures; assay type: functional
# Rattus norvegicus [42] = test: Anticonvulsant activity in albino Sprague-Dawley rat assessed as protection against maximal electroshock-induced seizures at 30 mg/kg, po after 1 hr; assay type: functional, organism-based
# [43] = Protective index, ratio of TD50 for neurotoxicity in ip dosed albino Sprague-Dawley rat to ED50 for anticonvulsant activity in ip dosed maximal electroshock-induced seizure albino Sprague-Dawley rat model; assay type: toxicity, organism-based; details: in vivo, read-out: Ratio TD50/ED50
# Mus musculus [44] = test: Anticonvulsant activity in albino CF1 mouse assessed as protection against 32 mA current-induced seizure at 30 mg/kg, ip after 0.5 hrs by 6 Hz psychomotor test; assay type: functional, organism-based
# Rattus norvegicus [45] = test: Anticonvulsant activity in albino Sprague-Dawley rat assessed as protection against maximal electroshock-induced seizures at 30 mg/kg, po after 0.5 hrs; assay type: functional, organism-based
# [46] = Protective index, ratio of TD50 for neurotoxicity in ip dosed albino Sprague-Dawley rat to ED50 for anticonvulsant activity in ip dosed subcutaneous metrazol-induced seizure albino Sprague-Dawley rat model; assay type: toxicity, organism-based; details: in vivo, read-out: Ratio TD50/ED50
# Mus musculus [47] = test: Anticonvulsant activity in albino CF1 mouse assessed as protection against 32 mA current-induced seizure at 100 mg/kg, ip after 0.5 hrs by 6 Hz psychomotor test; assay type: functional, organism-based
compound,measurement,setting,value
CCC(CC)COC(=O)NCCCn1ccnc1,Time,Mus musculus [1],0.5 h
same,Time,Mus musculus [2],0.5 h
same,TD50,[3],102 mg/kg
same,Activity,Mus musculus [4],Non-toxic
same,Activity,Rattus norvegicus [5],Non-toxic
same,Time,Mus musculus [6],0.5 h
same,Activity,Rattus norvegicus [7],Non-toxic
same,ED50,Mus musculus [8],> 85 mg/kg
same,Activity,Rattus norvegicus [9],Non-toxic
same,Activity,Mus musculus [10],Active
same,Activity,Mus musculus [11],Active
same,Activity,Mus musculus [12],Active
same,Activity,Rattus norvegicus [13],Non-toxic
same,Activity,Mus musculus [14],inactive
same,Activity,Mus musculus [15],Active
same,selectivity ratio,[16],1.2
same,Activity,Mus musculus [17],Non-toxic
same,Activity,Rattus norvegicus [18],Non-toxic
same,Activity,Mus musculus [19],Non-toxic
same,Activity,Mus musculus [20],Non-toxic
same,Activity,Rattus norvegicus [21],inactive
same,Activity,Mus musculus [22],Toxic
same,Activity,Mus musculus [23],inactive
same,Activity,Mus musculus [24],Toxic
same,Activity,Mus musculus [25],Toxic
same,selectivity ratio,[26],3.9
same,Activity,Rattus norvegicus [27],Non-toxic
same,Activity,Rattus norvegicus [28],Non-toxic
same,Activity,Rattus norvegicus [29],Active
same,ED50,Mus musculus [30],26 mg/kg
same,Activity,Rattus norvegicus [31],Non-toxic
same,Activity,Mus musculus [32],Toxic
same,ED50,Mus musculus [33],inactive
CC(COC(=O)NCCCn1ccnc1)CC(C)(C)C (stereo not given),Activity,Rattus norvegicus [34],inactive
same,Time,Mus musculus [1],0.5 h
same,ED50,Rattus norvegicus [35],17 mg/kg
same,Activity,Mus musculus [36],inactive
same,Time,Mus musculus [2],0.5 h
same,TD50,[3],60 mg/kg
same,Activity,Mus musculus [4],Non-toxic
same,Time,Rattus norvegicus [37],0.25 h
same,Activity,Rattus norvegicus [5],Non-toxic
same,Time,Rattus norvegicus [38],0.25 h
same,Time,Mus musculus [6],0.5 h
same,Activity,Rattus norvegicus [7],Non-toxic
same,ED50,Mus musculus [8],inactive
same,Activity,Rattus norvegicus [9],Non-toxic
same,Activity,Mus musculus [10],Active
same,TD50,[39],70 mg/kg
same,selectivity ratio,[40],1.4
same,ED50,Rattus norvegicus [41],> 70 mg/kg
same,Activity,Rattus norvegicus [42],inactive
same,Activity,Mus musculus [11],Active
same,Activity,Rattus norvegicus [13],Non-toxic
same,selectivity ratio,[43],4.1
same,Activity,Mus musculus [14],inactive
same,Activity,Mus musculus [15],Active
same,Activity,Mus musculus [17],Non-toxic
same,Activity,Rattus norvegicus [18],Non-toxic
same,Activity,Mus musculus [19],Non-toxic
same,Activity,Mus musculus [20],Non-toxic
same,Activity,Rattus norvegicus [21],inactive
same,Activity,Mus musculus [44],inactive
same,Activity,Mus musculus [23],inactive
same,Activity,Mus musculus [24],Toxic
same,Activity,Mus musculus [25],Toxic
same,Activity,Rattus norvegicus [45],inactive
same,Activity,Rattus norvegicus [27],Non-toxic
same,Activity,Rattus norvegicus [28],Non-toxic
same,ED50,Mus musculus [30],inactive
same,selectivity ratio,[46],1
same,Activity,Rattus norvegicus [31],Non-toxic
same,Activity,Mus musculus [32],Toxic
same,Activity,Mus musculus [47],Active
same,ED50,Mus musculus [33],44 mg/kg
